28 molecules from patent US8598200B2, “KAT II inhibitors” (Pfizer Inc., priority 2010, dated 2013) can be followed below.

human KAT II (hKAT II) enzyme, sequence (Q8N5Z0 30-425): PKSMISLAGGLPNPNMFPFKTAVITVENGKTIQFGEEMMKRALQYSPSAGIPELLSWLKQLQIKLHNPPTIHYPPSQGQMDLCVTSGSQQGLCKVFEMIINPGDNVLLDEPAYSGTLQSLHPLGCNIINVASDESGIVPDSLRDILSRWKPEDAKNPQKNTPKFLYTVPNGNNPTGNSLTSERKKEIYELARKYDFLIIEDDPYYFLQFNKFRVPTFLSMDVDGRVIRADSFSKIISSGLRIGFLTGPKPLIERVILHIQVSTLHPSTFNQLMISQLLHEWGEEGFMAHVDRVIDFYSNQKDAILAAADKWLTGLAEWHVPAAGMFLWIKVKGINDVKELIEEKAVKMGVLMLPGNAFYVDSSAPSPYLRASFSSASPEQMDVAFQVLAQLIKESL

The target in the experiment is human KAT II (hKAT II) enzyme (Homo sapiens (Human), UniProt Q8N5Z0). Nature of the experiment: KAT II Inhibition Spectra Assay. It is filed as biochemical. The settings on record: decrease in OD370, L-kynurenine substrate, 37° C. for 15-20 h; values marked ^1 are the average of 2 IC50 determinations; read-out: KATII IC50 (nM; single determination unless otherwise indicated). On the procedure:
Formation of kynurenic acid (KYNA) is indirectly assessed by a decrease in light absorbance at 370 nm (OD370) as the L-kynurenine (KYN) substrate is converted by the human KAT II (hKAT II) enzyme into KYNA. An inhibitor would therefore inhibit the decrease in OD370.
The protocol was performed by placing the following reagents into a Costar 384 well black plate (30 μL total assay volume/well): • 10 μL of 3× concentrated compound; • 10 μL of 3× concentrated substrate mix (BGG (Sigma G-5009); 3 mM L-Kynurenine in 150 mM Tris Acetate (Sigma K3750); 3 mM α-ketoglutaric acid in 150 mM Tris Acetate (Sigma K2010); and 210 μM pyridoxal 5-phosphate (PLP) in 150 mM Tris Acetate (Sigma 9255)); and • 10 μL of 3× concentrated enzyme (15 nM enzyme in 150 mM Tris Acetate with 0.3% bovine serum).
Plates were sealed and incubated at 37° C. for 15-20 h before reading OD370 on a SpectraMax Plus plate reader. IC50s were generated by comparing the efficacy of compounds across a concentration range to inhibit a reduction in the OD370 value relative to assay wells with DMSO added in place of concentrated compound. Biological data for the Examples may be found in Table 2.
For `N[C@H]1Cc2c(c(C(F)(F)F)nn2Cc2ccccc2)N(O)C1=O` [Example 5, (6S)-6-Amino-1-benzyl-4-hydroxy-3-(trifluoromethyl)-1,4,6,7-tetrahydro-5H-pyrazolo[4,3-b]pyridin-5-one], the 50% inhibitory concentration (IC50) amounted to 42.7 nM. In the case of `N[C@H]1Cc2cn(Cc3ccccc3)nc2N(O)C1=O` [Example 1, (5S)-5-Amino-2-benzyl-7-hydroxy-2,4,5,7-tetrahydro-6H-pyrazolo[3,4-b]pyridin-6-one], the IC50 turned out to be 59.4 nM.

As for `CCn1nc2c(c1Cc1ccccc1)C[C@H](N)C(=O)N2O` [Example 23, (5S)-5-amino-3-benzyl-2-ethyl-7-hydroxy-2.4,5,7-tetrahydro-6H-pyrazolo[3,4-b]pyridin-6-one], the IC50 came out at 24.3 nM. Under `N[C@H]1Cc2cn(C3CCC3)nc2N(O)C1=O` [Example 19, (5S)-5-amino-2-cyclobutyl-7-hydroxy-2,4,5,7-tetrahydro-6H-pyrazolo[3,4-b]pyridin-6-one] stands 81.3 nM; under `N[C@H]1Cc2cn(-c3cccc(C(F)(F)F)c3)nc2N(O)C1=O` [Example 7, (5S)-5-Amino-7-hydroxy-2-[3-(trifluoromethyl)phenyl]-2,4,5,7-tetrahydro-6H-pyrazolo[3,4-b]pyridin-6-one], 74.7 nM. Take `Cn1nc2c(c1Cc1ccc(C(F)(F)F)cc1)C[C@H](N)C(=O)N2O` [Example 27, (5S)-5-amino-7-hydroxy-2-methyl-3-[4-(trifluoromethyl)benzyl]-2,4,5,7-tetrahydro-6H-pyrazolo[3,4-6]pyridin-6-one]: the IC50 came out at 37 nM. In the case of `COc1ccc(Cn2cc3c(n2)N(O)C(=O)[C@@H](N)C3)cc1` [Example 15, (5S)-5-amino-7-hydroxy-2-(4-methoxybenzyl)-2,4,5,7-tetrahydro-6H-pyrazolo[3,4-b]pyridin-6-one], the IC50 came to 28.3 nM. Consider `COc1ccccc1Cn1cc2c(n1)N(O)C(=O)[C@@H](N)C2` [Example 10, (5S)-5-amino-7-hydroxy-2-(2-methoxybenzyl)-2,4,5,7-tetrahydro-6H-pyrazolo[3,4-b]pyridin-6-one], for which the IC50 was determined as 50.2 nM. `Cn1ncc2c1N(O)C(=O)[C@@H](N)C2` [Example 18, (5S)-5-amino-7-hydroxy-1-methyl-1,4,5,7-tetrahydro-6H-pyrazolo[3,4-b]pyridin-6-one]: the IC50 stood at 329 nM.

Turning to `N[C@H]1Cc2cn(Cc3cccc4ccccc34)nc2N(O)C1=O` [Example 8, (5S)-5-amino-7-hydroxy-2-(1-naphthylmethyl)-2,4,5,7-tetrahydro-6H-pyrazolo[3,4-b]pyridin-6-one], the IC50 came out at 36 nM.

Turning to `COc1ccc(Cc2nn(C)c3c2C[C@H](N)C(=O)N3O)cc1` [Example 21], the IC50 was 440 nM.

On to `N[C@H]1Cc2nn(Cc3ccccc3)cc2N(O)C1=O` [Example 13, (6S)-6-amino-2-benzyl-4-hydroxy-2,4,6,7-tetrahydro-5H-pyrazolo[4,3-b]pyridin-5-one], for which the IC50 was found to be 182 nM.

Take `COc1cccc(Cn2cc3c(n2)N(O)C(=O)[C@@H](N)C3)c1` [Example 11, (5S)-5-amino-7-hydroxy-2-(3-methoxybenzyl)-2,4,5,7-tetrahydro-6H-pyrazolo[3,4-b]pyridin-6-one]: the IC50 amounted to 8.93 nM. Regarding `Cn1nc(Cc2ccccc2)c2c1N(O)C(=O)[C@@H](N)C2` [Example 2, (5S)-5-Amino-3-benzyl-7-hydroxy-1-methyl-1,4,5,7-tetrahydro-6H-pyrazolo[3,4-b]pyridin-6-one], the IC50 amounted to 63.7 nM. For `Cn1nc2c(c1Cc1ccccc1)C[C@H](N)C(=O)N2O` [Example 3, (5S)-5-Amino-3-benzyl-7-hydroxy-2-methyl-2,4,5,7-tetrahydro-6H-pyrazolo[3,4-b]pyridin-6-one], the IC50 worked out at 11.5 nM. Consider `Cc1c2c(nn1Cc1ccccc1)N(O)C(=O)[C@@H](N)C2` [Example 12, (5S)-5-amino-2-benzyl-7-hydroxy-3-methyl-2,4,5,7-tetrahydro-6H-pyrazolo[3,4-b]pyridin-6-one], for which the IC50 was 81.6 nM. For `N[C@H]1Cc2cn(Cc3ccc4ccccc4c3)nc2N(O)C1=O` [Example 9, (5S)-5-amino-7-hydroxy-2-(2-naphthylmethyl)-2,4,5,7-tetrahydro-6H-pyrazolo[3,4-b]pyridin-6-one], the IC50 stood at 117 nM. As to `Cc1c2c(nn1-c1ccccc1)C[C@H](N)C(=O)N2O` [Example 17, (6S)-6-amino-4-hydroxy-3-methyl-2-phenyl-2,4,6,7-tetrahydro-5H-pyrazolo[4,3-b]pyridin-5-one], the IC50 was 2010 nM.

For `COc1cccc(Cc2nn(C)c3c2C[C@H](N)C(=O)N3O)c1` [Example 22, (5S)-5-amino-7-hydroxy-3-(3-methoxybenzyl)-1-methyl-1,4,5,7-tetrahydro-6H-pyrazolo[3,4-b]pyridin-6-one], the IC50 was found to be 65.6 nM. For `N[C@H]1Cc2cn(-c3ccccc3C(F)(F)F)nc2N(O)C1=O` [Example 28, (5S)-5-amino-7-hydroxy-2-[2-(trifluoromethyl)phenyl]-2,4,5,7-tetrahydro-6H-pyrazolo[3,4-b]pyridin-6-one], the IC50 came out at 38.8 nM. For the molecule `Cn1nc2c(c1Cc1ccccc1C(F)(F)F)C[C@H](N)C(=O)N2O` [Example 26, (5S)-5-amino-7-hydroxy-2-methyl-3-[2-(trifluoromethyl)benzyl]-2.4,5,7-tetrahydro-6H-pyrazolo[3,4-b] pyridin-6-one], the concentration for half-maximal inhibition (IC50) turned out to be 40.7 nM.

`N[C@H]1Cc2cn(-c3ccccc3)nc2N(O)C1=O` [Example 14, (5S)-5-amino-7-hydroxy-2-phenyl-2,4,5,7-tetrahydro-6H-pyrazolo[3,4-b]pyridin-6-one]: the IC50 was 24.3 nM. On to `N[C@H]1Cc2c(cnn2Cc2ccccc2)N(O)C1=O` [Example 4, (6S)-6-Amino-1-benzyl-4-hydroxy-1,4,6,7-tetrahydro-5H-pyrazolo[4,3-b]pyridin-5-one], for which the IC50 amounted to 22.5 nM.

With `N[C@H]1Cc2cn(Cc3ccc(OC(F)(F)F)cc3)nc2N(O)C1=O` [Example 6, (5S)-5-Amino-7-hydroxy-2-[4-(trifluoromethoxy)benzyl]-2,4,5,7-tetrahydro-6H-pyrazolo[3,4-b]pyridin-6-one], the IC50 was 43.6 nM. Consider `N[C@H]1Cc2cn(-c3ccc(C(F)(F)F)cc3)nc2N(O)C1=O` [Example 29, (5S)-5-amino-7-hydroxy-2-[4-(trifluoromethyl)phenyl]-2,4,5,7-tetrahydro-6H-pyrazolo[3,4-b]pyridin-6-one], for which the IC50 turned out to be 31.6 nM. Consider `Cn1nc2c(c1Cc1cccc(C(F)(F)F)c1)C[C@H](N)C(=O)N2O` [Example 25, (5S)-5-amino-7-hydroxy-2-methyl-3-[3-(trifluoromethyl)benzyl]-2,4,5,7-tetrahydro-6H-pyrazolo[3,4-b]pyridin-6-one], for which the IC50 was 42.2 nM. On to `CC(C)n1nc2c(c1Cc1ccccc1)C[C@H](N)C(=O)N2O` [Example 24, (5S)-5-amino-3-benzyl-7-hydroxy-2-isopropyl-2,4,5,7-tetrahydro-6H-pyrazolo[3,4-b]pyridin-6-one], for which the IC50 is 63 nM.

As to `CC(C)n1cc2c(n1)N(O)C(=O)[C@@H](N)C2` [Example 20, (5S)-5-amino-7-hydroxy-2-isopropyl-2,4,5,7-tetrahydro-6H-pyrazolo[3,4-b]pyridin-6-one], the 50% inhibitory concentration (IC50) amounted to 153 nM.
